In EP0089426A1, “2-Amino-6-biphenylacetic acids” (A.H. ROBINS COMPANY, INCORPORATED, priority 1982, dated 1983):

Experiment: loss of righting test (muscle relaxant activity)
Type: in vivo

Nc1cccc(-c2ccccc2)c1CC(=O)O [Example 6-phenyl]
Percent loss of Righting reflex (Dose 50 mg/kg): 0% | Percent loss of Righting reflex (Dose 100 mg/kg): 100%
